# According to US20260355196A1, “INHIBITORS AND DEGRADERS OF PIP4K PROTEIN” (Larkspur Biosciences, Inc., priority 2023, published 2026):
# Biological target: T1, PIP4K2C (Homo sapiens, UniProt Q8TBX8)
# T1 sequence (Q8TBX8 1-421): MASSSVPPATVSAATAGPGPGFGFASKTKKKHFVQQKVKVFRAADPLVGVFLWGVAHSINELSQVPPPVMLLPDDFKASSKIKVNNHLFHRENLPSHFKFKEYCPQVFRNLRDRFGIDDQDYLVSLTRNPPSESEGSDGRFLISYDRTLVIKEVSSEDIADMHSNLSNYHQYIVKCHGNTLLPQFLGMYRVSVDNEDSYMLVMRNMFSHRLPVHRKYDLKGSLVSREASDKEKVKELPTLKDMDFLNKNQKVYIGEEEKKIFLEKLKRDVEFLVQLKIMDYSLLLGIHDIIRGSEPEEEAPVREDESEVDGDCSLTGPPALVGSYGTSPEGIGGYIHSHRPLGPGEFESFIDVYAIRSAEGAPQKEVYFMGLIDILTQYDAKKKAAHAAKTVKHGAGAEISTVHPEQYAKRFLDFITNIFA
# Assay: HiBiT PIP4K2C degradation assay in MOLT-4 cells (endogenous PIP4K2C C-terminally tagged with HiBiT)
# Assay type: cell-based
# Design: untagged in primary human PBMCs and monocyte-derived dendritic cells
# Details: 6 hours of incubation time, rather than 24 hours; MOLT-4, top concentration 10 micromolar; read-out: HiBIT-degradation MOLT4 PIP4k2C DC50 (6 hours, marked *)
# Description: Example B-2: HiBiT PIP4K2C degradation assay
# Materials: MOLT-4, a human T lymphoblast cell line (see https://www.atcc.org/products/crl-1582, herein incorporated by reference in its entirety), was genetically engineered using CRISPR-Cas9 by Synthego Corporation (Redwood City, CA) to C-terminally tag endogenous PIP4K2C with HiBiT peptide. Following clonal selection, genotype was confirmed by Sanger sequencing. MO LT-4 were maintained using RPMI-1640 medium from Gibco (Grand Island, NY, catalog number 11875-085) supplemented with 10% fetal bovine serum (FBS) from VWR (Philadelphia, PA, catalog number 97068-085). For HiBiT assays the cells were resuspended in RPMI-1640 medium without phenol read from Gibco (Grand Island, NY, catalog number 11835-030) supplemented with 10% FBS. Nano-Glo® HiBiT Lytic Assay System was purchased from Promega (Madison, WI, Catalog number N3030). Cell culture flasks and 384-well microplates were purchased from Corning (Glendale, AZ).
# To study PIP4K2C degradation, 384-well plates were plated with a 10-point dose response curve, 3-fold dilution, in duplicate with a top starting concentration of 10 micromolar. Subsequently 22,500 cells were added to each well and incubated at 37 C in 5% C02 for 24 hours or 6 hours. At the end of the incubation time, cells were treated with the Nano-Glo® HiBiT Lytic Detection System following the manufacturer's instructions. Luminescence was measured with a PHERAstar FSX plate reader (BMG Labtech, Cary, NC). The Levenberg-Marquardt algorithm was used to fit a Hill equation to dose-response data to calculate DC50 values (see Table 6).
row,Compound,DC50 [nM]
1,"Cn1nc(C2CCC(=O)NC2=O)c2ccc(N3CCN([C@H]4CC[C@H](C(=O)N[C@H]5CC[C@H](Nc6ncc(F)c(-c7cccc(-n8ccccc8=O)c7)n6)CC5)CC4)CC3)cc21 (stereo partly drawn) [Compound 388, trans-4-(4-(3-(2,6-dioxopiperidin-3-yl)-1-methyl-1H-indazol-6-yl)piperazin-1-yl)-N-(trans-4-((5-fluoro-4-(3-(2-oxopyridin-1(2H)-yl)phenyl)pyrimidin-2-yl)amino)cyclohexyl)cyclohexane-1-carboxamide]",< 500
2,"O=C1CCC(Nc2ccc(N3CCN(C[C@H]4CC[C@H](CNC(=O)[C@H]5CC[C@H](Nc6ncc(F)c(-c7cccc(N8CCCCC8=O)c7)n6)CC5)CC4)CC3)c(F)c2)C(=O)N1 (stereo partly drawn) [Compound 590, trans-(1r,4R)—N-(((1r,4R)-4-((4-(4-((2,6-dioxopiperidin-3-yl)amino)-2-fluorophenyl)piperazin-1-yl)methyl)cyclohexyl)methyl)-4-((5-fluoro-4-(3-(2-oxopiperidin-1-yl)phenyl)pyrimidin-2-yl)amino)cyclohexane-1-carboxamide]",< 500
3,"O=C1CCC(Nc2ccc(N3CCC(N4CCC(NC(=O)[C@H]5CC[C@H](Nc6ncc(F)c(-c7cccc(-n8ccccc8=O)c7)n6)CC5)CC4)C(F)(F)C3)c(F)c2)C(=O)N1 (stereo partly drawn) [Compound 431, trans-N-(1′-(4-((2,6-dioxopiperidin-3-yl)amino)-2-fluorophenyl)-3′,3′-difluoro-[1,4′-bipiperidin]-4-yl)-4-((5-fluoro-4-(3-(2-oxopyridin-1(2H)-yl)phenyl)pyrimidin-2-yl)amino)cyclohexane-1-carboxamide]",< 500
4,"Cn1nc(C2CCC(=O)NC2=O)c2ccc(N3CCN([C@H]4CC[C@H](NC(=O)[C@H]5CC[C@H](Nc6ncc(F)c(-c7cccc(-c8ccc[nH]c8=O)c7)n6)CC5)CC4)CC3)cc21 (stereo partly drawn) [Compound 404, trans-(1r,4R)—N-((1r,4R)-4-(4-(3-(2,6-dioxopiperidin-3-yl)-1-methyl-1H-indazol-6-yl)piperazin-1-yl)cyclohexyl)-4-((5-fluoro-4-(3-(2-oxo-1,2-dihydropyridin-3-yl)phenyl)pyrimidin-2-yl)amino)cyclohexane-1-carboxamide]",> 5000
5,"Cn1nc(C2CCC(=O)NC2=O)c2ccc(N3CCN(CC4CCN(C(=O)[C@H]5CC[C@H](Nc6ncc(F)c(-c7cccc(-c8ccc[nH]c8=O)c7)n6)CC5)CC4)CC3)cc21 (stereo partly drawn) [Compound 417, 3-(6-(4-((1-(trans-4-((5-fluoro-4-(3-(2-oxo-1,2-dihydropyridin-3-yl)phenyl)pyrimidin-2-yl)amino)cyclohexane-1-carbonyl)piperidin-4-yl)methyl)piperazin-1-yl)-1-methyl-1H-indazol-3-yl)piperidine-2,6-dione]",< 500
6,"O=C1CCC(Nc2ccc(N3CCC(N4CCC(C(=O)N[C@H]5CC[C@H](Nc6ncc(F)c(-c7cccc(N8CCCCC8=O)c7)n6)CC5)CC4)C(F)C3)c(F)c2)C(=O)N1 (stereo partly drawn) [Compound 524, 1′-(4-((2,6-dioxopiperidin-3-yl)amino)-2-fluorophenyl)-3′-fluoro-N-((1r,4r)-4-((5-fluoro-4-(3-(2-oxopiperidin-1-yl)phenyl)pyrimidin-2-yl)amino)cyclohexyl)-[1,4′-bipiperidine]-4-carboxamide]",< 500
7,"O=C1CCC(Nc2ccc(N3CCN(CC4(F)CCN(C(=O)[C@H]5CC[C@H](Nc6ncc(F)c(-c7cccc(N8CCCCC8)c7)n6)CC5)CC4)CC3)c(F)c2)C(=O)N1 (stereo partly drawn) [Compound 491, trans-3-((3-fluoro-4-(4-((4-fluoro-1-(4-((5-fluoro-4-(3-(piperidin-1-yl)phenyl)pyrimidin-2-yl)amino)cyclohexane-1-carbonyl)piperidin-4-yl)methyl)piperazin-1-yl)phenyl)amino)piperidine-2,6-dione]",< 500

# Second part, the compound after the results:
row,DC50 [nM],Compound
1,< 500,"O=C1CCC(Nc2ccc(C3CCN(CC4CCN(C(=O)[C@H]5CC[C@H](Nc6ncc(F)c(-c7cccc(N8CCOCC8=O)c7)n6)CC5)CC4)CC3)c(F)c2)C(=O)N1 (stereo partly drawn) [Compound 552, trans-3-((3-fluoro-4-(1-((1-(4-((5-fluoro-4-(3-(3-oxomorpholino)phenyl)pyrimidin-2-yl)amino)cyclohexane-1-carbonyl)piperidin-4-yl)methyl)piperidin-4-yl)phenyl)amino)piperidine-2,6-dione]"
2,< 500,"O=C1CCC(Nc2ccc(N3CCC(N4CCC(C(=O)N[C@H]5CC[C@H](Nc6ncc(F)c(-c7cccc(N8CCOCC8)c7)n6)CC5)CC4)C(F)C3)c(F)c2)C(=O)N1 (stereo partly drawn) [Compound 655, 1′-(4-((2,6-dioxopiperidin-3-yl)amino)-2-fluorophenyl)-3′-fluoro-N-((1r,4r)-4-((5-fluoro-4-(3-morpholinophenyl)pyrimidin-2-yl)amino)cyclohexyl)-[1,4′-bipiperidine]-4-carboxamide]"
3,< 500,"O=C1CCC(Nc2ccc(N3CCC(N4CCC(O)(C(=O)N[C@H]5CC[C@H](Nc6ncc(F)c(-c7cccc(-n8ccccc8=O)c7)n6)CC5)CC4)CC3)c(F)c2)C(=O)N1 (stereo partly drawn) [Compound 444, trans-1′-(4-((2,6-dioxopiperidin-3-yl)amino)-2-fluorophenyl)-N-(4-((5-fluoro-4-(3-(2-oxopyridin-1(2H)-yl)phenyl)pyrimidin-2-yl)amino)cyclohexyl)-4-hydroxy-[1,4′-bipiperidine]-4-carboxamide]"
4,< 500,"O=C1CCC(Nc2ccc(C3CCN(C4CCN(C(=O)O[C@H]5CC[C@H](Nc6ncc(F)c(-c7cccc(-n8ccccc8=O)c7)n6)CC5)CC4)CC3)c(F)c2)C(=O)N1 (stereo partly drawn) [Compound 474, trans-4-((5-fluoro-4-(3-(2-oxopyridin-1 (2H)-yl)phenyl)pyrimidin-2-yl)amino)cyclohexyl 4-(4-((2,6-dioxopiperidin-3-yl)amino)-2-fluorophenyl)-[1,4′-bipiperidine]-1′-carboxylate]"
5,< 500,"O=C1CCC(Nc2ccc(C3CCN([C@H]4CC[C@H](NC(=O)[C@H]5CC[C@H](Nc6ncc(F)c(-c7cccc(-n8ccccc8=O)c7)n6)CC5)CC4)CC3(F)F)c(F)c2)C(=O)N1 (stereo partly drawn) [Compound 692, trans-N-(trans-4-(4-(4-((2,6-dioxopiperidin-3-yl)amino)-2-fluorophenyl)-3,3-difluoropiperidin-1-yl)cyclohexyl)-4-((5-fluoro-4-(3-(2-oxopyridin-1 (2H)-yl)phenyl)pyrimidin-2-yl)amino)cyclohexane-1-carboxamide]"

# Same assay, conditions: 24 hours incubation, MOLT-4, top concentration 10 micromolar; read-out: HiBIT-degradation MOLT4 PIP4k2C 24 hours DC50
row,DC50 [nM],Compound
1,< 500,"O=C1CCC(Nc2ccc(N3CCC(N4CCC(C(=O)N[C@H]5CC[C@H](Nc6ncc(F)c(-c7cccc(-n8ccccc8=O)c7)n6)CC5)CC4)CC3)c(F)c2)C(=O)N1 (stereo partly drawn) [Compound 305, trans-1′-(4-((2,6-dioxopiperidin-3-yl)amino)-2-fluorophenyl)-N-(4-((5-fluoro-4-(3-(2-oxopyridin-1(2H)-yl)phenyl)pyrimidin-2-yl)amino)cyclohexyl)-[1,4′-bipiperidine]-4-carboxamide]"
2,< 500,"Cn1c(=O)n(C2CCC(=O)NC2=O)c2ccc(C3CCN(CC(=O)N4CCN(C(=O)[C@H]5CCC[C@@H](Nc6ncc(Cl)c(-c7cccc(-c8ccccc8)c7)n6)C5)CC4)CC3)cc21 (relative stereo) [Compound 51, cis-3-(5-(1-(2-(4-(3-((4-([1,1′-biphenyl]-3-yl)-5-chloropyrimidin-2-yl)amino)cyclohexane-1-carbonyl)piperazin-1-yl)-2-oxoethyl)piperidin-4-yl)-3-methyl-2-oxo-2,3-dihydro-1H-benzo[d]imidazol-1-yl)piperidine-2,6-dione]"

# Same assay, conditions: read-out: HiBIT-degradation MOLT4 PIP4k2C DC50 (6 hours, marked *); 6 hours of incubation time, rather than 24 hours; MOLT-4, top concentration 10 micromolar
row,DC50 [nM],Compound
1,< 500,"O=C1CCC(Nc2ccc(C3CCN(CCC4(O)CCN(C(=O)O[C@H]5CC[C@H](Nc6ncc(F)c(-c7cccc(-n8ccccc8=O)c7)n6)CC5)CC4)CC3)c(F)c2)C(=O)N1 (stereo partly drawn) [Compound 641, trans-4-((5-fluoro-4-(3-(2-oxopyridin-1 (2H)-yl)phenyl)pyrimidin-2-yl)amino)cyclohexyl 4-(2-(4-(4-((2,6-dioxopiperidin-3-yl)amino)-2-fluorophenyl)piperidin-1-yl)ethyl)-4-hydroxypiperidine-1-carboxylate]"
